Publication PMC6193035, “Novel small molecules affecting cell membrane as potential therapeutics for avian pathogenic Escherichia coli” (Scientific Reports, 2018)
Values after ≈ are worked out from the molar mass of the structure shown. Marks after values point to notes of the source that are not given here.

Assays:
[1] = tested on: intracellular APEC O78, O2, and O1 in infected Caco-2, HD11, and THP1 cells; assay: Intracellular survival assay, statements over all serotypes and cells; assay type: cell-based, Escherichia coli; conditions: Escherichia coli, 6 h, O78, O2 and O1; Caco-2, HD11, THP-1; 6 h; read-out: concentration clearing intracellular APEC
Experimental: (§1) Intracellular survival assay was conducted as described previously[28],[29] to determine the effect of cidal SMs on APEC survival in phagocytic (HD11, THP-1) and non-phagocytic (Caco-2) cells. Briefly, mid-logarithmic phase grown APEC O78, O1, and O2 were washed and adjusted to 1 × 10^7 CFU/mL in cell culture incomplete media (no FBS and antibiotics). One-hundred microlitres adjusted APEC suspension was added at multiplicity of infection (MOI) 10 to wells of 96-well cell culture plate containing cultured macrophage (HD11, THP-1) and epithelial cells (Caco-2) and incubated for 1 h and 3 h, respectively. […] The cells were then lysed with 100 µL of 0.1% Triton X-100 for 5 mins, serially diluted, and plated on LB agar plate to enumerate viable bacteria. The intracellular bacteria in SMs treated wells were compared with DMSO (1%) treated wells. Two independent experiments in duplicate wells for each concentration of SMs were conducted.

APEC O15 = assay: MIC and MBC determination in M63 media; assay type: cell-based; conditions: Escherichia coli
[2] = tested on: biofilm embedded APEC O78; assay: MBEC High-throughput (HTP) assay; assay type: cell-based, Escherichia coli; conditions: for MBEC as multiple of MIC (superscript): 18 h challenge in M63 media
Experimental: The effect of cidal SMs against biofilm embedded APEC was determined using MBEC High-throughput (HTP) assay (Innovotech Inc., AB, Canada)[22]. Briefly, 150 μL of 0.05 OD600 adjusted APEC O78 culture was aliquoted into each well of the MBEC device containing polystyrene pegs and incubated at 37 °C for 36 h in LB media under stationary condition. […] The plate was incubated in the dark for 18 h at 37 °C with rotation at 110 rpm. The DMSO (1%) and […] media were used as positive and negative controls, respectively. Following incubation, MIC of SMs in challenged plate was recorded. The SMs exposed pegs were then transferred to a new 96-well plate containing PBS and sonicated for 30 mins (Aquasonic ultrasonic cleaner, VWR) to disrupt the biofilm. The sonicated suspensions were ten-fold serially diluted and plated on LB agar plate. Biofilm embedded APEC bacteria were enumerated and minimum biofilm eradication concentration (MBEC) of SMs were determined as described previously. Two independent experiments were conducted.

APEC O35 = assay: MIC and MBC determination in M63 media; assay type: cell-based; conditions: Escherichia coli
APEC O8 = assay: MIC and MBC determination in M63 media; assay type: cell-based; conditions: Escherichia coli
APEC O78 [3] = assay: MIC and MBC determination in M63 media; assay type: cell-based, Escherichia coli; conditions: for MIC / MBC: Escherichia coli; for MBC: subculture on LB agar
Experimental: (§2) One microlitre SM of each concentration was transferred to each well of a 96-well plate containing 100 µL of the 0.05 OD600 adjusted APEC O78 culture in M63 media. Growth was monitored in Sunrise - Absorbance microplate reader as described above. MIC was indicated by lowest concentration of SM with non-elevated OD600 measurement. MBC was determined by absence of APEC growth on LB agar plate following subculture. […] Two independent experiments were conducted.

APEC O2-211 = assay: MIC and MBC determination in M63 media; assay type: cell-based; conditions: Escherichia coli; APEC O2-211, M63 media
APEC O78 [4] = assay: Loss of 260/280 nm absorbing materials assay; assay type: cell-based, Escherichia coli; conditions: 2X MBC, 1 h; for Absorbance 280 nm of treated supernatant: DMSO 2.58; for Absorbance 280 nm of treated supernatant / Absorbance 260 nm of treated supernatant: superscript a P < 0.05 vs DMSO; for Absorbance 260 nm of treated supernatant: DMSO 3.77
Experimental: (§3) Membrane permeability assays (crystal violet (CV) uptake and loss of 260/280 nm absorbing materials) were conducted as described previously. […] CV uptake was measured using the formula: (OD DMSO − OD SM/OD DMSO × 100). Two independent experiments in duplicates were conducted.

APEC O78 [5] = assay: Crystal violet (CV) uptake assay; assay type: cell-based, Escherichia coli; conditions: 2X MBC, 30 mins; P < 0.05, Student's t-test
Experimental: as §3

APEC O78-53 = assay: MIC and MBC determination in M63 media; assay type: cell-based; conditions: Escherichia coli; APEC O78-53, M63 media
Experimental: as §2

APEC O1-63 = assay: MIC and MBC determination in M63 media; assay type: cell-based; conditions: Escherichia coli; APEC O1-63, M63 media
APEC O1 = assay: MIC and MBC determination in M63 media; assay type: cell-based; conditions: Escherichia coli
[6] = tested on: intracellular APEC O2 in THP-1 cells; assay: Intracellular survival assay; assay type: cell-based, Escherichia coli; conditions: for minimal effective concentration: Escherichia coli, O2, THP-1, 6 h treatment, read-out: SMs intracellular APEC clearance concentration; for concentration at which the SM significantly (P < 0.01) reduced intracellular APEC (superscript of t-statistic): O2, THP-1, 6 h
Experimental: as §1

[7] = tested on: intracellular APEC O2 in Caco-2 cells; assay: Intracellular survival assay; assay type: cell-based, Escherichia coli; conditions: for minimal effective concentration: Escherichia coli, O2, Caco-2, 6 h treatment, read-out: SMs intracellular APEC clearance concentration; for concentration at which the SM significantly (P < 0.01) reduced intracellular APEC (superscript of t-statistic): O2, Caco-2, 6 h
Experimental: as §1

APEC O109 = assay: MIC and MBC determination in M63 media; assay type: cell-based; conditions: Escherichia coli
APEC O2 = assay: MIC and MBC determination in M63 media; assay type: cell-based; conditions: Escherichia coli
APEC O78 [8] = assay: Bacterial cytological profiling by confocal microscopy; assay type: cell-based, Escherichia coli; conditions: 2X MBC, 2 h
Experimental: Confocal microscopy was used for bacterial cytological profiling (BCP) to identify the cellular pathways targeted by SMs as described previously. […] After incubation, treated cultures were centrifuged, washed, and resuspended in 100 µL PBS. FM4-64 (#T13320 Molecular Probes/Invitrogen) (1 µg/mL) and SYTO-9 (#S34854 Molecular Probes/Invitrogen) (5 µM) were added to the bacterial cultures and incubated for 45 mins at room temperature with shaking at 150 rpm. Cultures were then centrifuged, washed, and resuspended in PBS to 1/10th volume of the original cultures.

APEC O115 = assay: MIC and MBC determination in M63 media; assay type: cell-based; conditions: Escherichia coli
APEC O18 = assay: MIC and MBC determination in M63 media; assay type: cell-based; conditions: Escherichia coli

Row | SMILES | minimal effective concentration [1] | MBC (APEC O15) | MIC (APEC O15) | MBEC as multiple of MIC (superscript) [2] | MBC (APEC O35) | MIC (APEC O35) | MBC (APEC O8) | MIC (APEC O8) | MBC relative to MIC (APEC O78 [3]) | MIC (APEC O78 [3]) | MBC (APEC O78 [3]) | MBC (APEC O2-211) | MIC (APEC O2-211) | 280 nm absorbing materials in supernatant compared with DMSO (APEC O78 [4]) | Absorbance 280 nm of treated supernatant (APEC O78 [4]) | Absorbance 260 nm of treated supernatant (APEC O78 [4]) | uptake of crystal violet compared with DMSO (APEC O78 [5]) | MBC (APEC O78-53) | MIC (APEC O78-53) | MBC (APEC O1-63) | other results
1 | COc1cc(CNCCc2ccc(C)cc2)ccc1OCC(O)CN1CCCC1 (centres unmarked) [SM3] | ≥ 100 µM | 100 µM (≈ 39.9 µg/mL) | 100 µM (≈ 39.9 µg/mL) | b (1X MIC) | 200 µM (≈ 79.7 µg/mL) | 100 µM (≈ 39.9 µg/mL) | 100 µM (≈ 39.9 µg/mL) | 100 µM (≈ 39.9 µg/mL) | identical to MIC | 100 µM (≈ 39.9 µg/mL) | 100 µM (≈ 39.9 µg/mL) | 100 µM (≈ 39.9 µg/mL) | 100 µM (≈ 39.9 µg/mL) | significantly (P < 0.05, Student’s t-test) increased | 2.84^a | 3.77 | increased the uptake of crystal violet | 200 µM (≈ 79.7 µg/mL) | 100 µM (≈ 39.9 µg/mL) | 200 µM (≈ 79.7 µg/mL) | MIC (APEC O1-63): 200 µM (≈ 79.7 µg/mL); MBC (APEC O1): 200 µM (≈ 79.7 µg/mL); MIC (APEC O1): 100 µM (≈ 39.9 µg/mL); minimal effective concentration [6]: 100 µM; concentration at which the SM significantly (P < 0.01) reduced intracellular APEC (superscript of t-statistic) [6]: a (0.5X MIC); minimal effective concentration [7]: > 200 µM; concentration at which the SM significantly (P < 0.01) reduced intracellular APEC (superscript of t-statistic) [7]: b (1X MIC); MBC (APEC O109): 200 µM (≈ 79.7 µg/mL); MIC (APEC O109): 100 µM (≈ 39.9 µg/mL); MBC (APEC O2): 200 µM (≈ 79.7 µg/mL); MIC (APEC O2): 100 µM (≈ 39.9 µg/mL); cytological profile (FM4-64 / SYTO-9 staining) (APEC O78 [8]): bright red foci at random positions throughout the cell indicating membrane defects (membrane pore formers); MBC (APEC O115): 100 µM (≈ 39.9 µg/mL); MIC (APEC O115): 100 µM (≈ 39.9 µg/mL); MBC (APEC O18): 100 µM (≈ 39.9 µg/mL); MIC (APEC O18): 100 µM (≈ 39.9 µg/mL)
2 | CC1CCCN(CCC(=O)c2ccc(Br)cc2)C1 (centres unmarked) [SM1] | ≥ 100 µM | 250 µM (≈ 77.6 µg/mL) | 200 µM (≈ 62 µg/mL) | d (4X MIC) | 200 µM (≈ 62 µg/mL) | 200 µM (≈ 62 µg/mL) | 200 µM (≈ 62 µg/mL) | 200 µM (≈ 62 µg/mL) | identical to MIC | 200 µM (≈ 62 µg/mL) | 200 µM (≈ 62 µg/mL) | 200 µM (≈ 62 µg/mL) | 200 µM (≈ 62 µg/mL) | significantly (P < 0.05, Student’s t-test) increased | 3.08^a | 4.00^a | increased the uptake of crystal violet | 200 µM (≈ 62 µg/mL) | 200 µM (≈ 62 µg/mL) | 250 µM (≈ 77.6 µg/mL) | MBEC as multiple of MIC ([2]; tested 0.5X to 8X MIC): 4 X MIC; 260 nm absorbing materials in supernatant compared with DMSO (APEC O78 [4]): significantly (P < 0.05, Student’s t-test) increased; MIC (APEC O1-63): 200 µM (≈ 62 µg/mL); MBC (APEC O1): 250 µM (≈ 77.6 µg/mL); MIC (APEC O1): 200 µM (≈ 62 µg/mL); minimal effective concentration [6]: 200 µM; concentration at which the SM significantly (P < 0.01) reduced intracellular APEC (superscript of t-statistic) [6]: b (1X MIC); minimal effective concentration [7]: > 400 µM; concentration at which the SM significantly (P < 0.01) reduced intracellular APEC (superscript of t-statistic) [7]: b (1X MIC); MBC (APEC O109): 200 µM (≈ 62 µg/mL); MIC (APEC O109): 200 µM (≈ 62 µg/mL); MBC (APEC O2): 200 µM (≈ 62 µg/mL); MIC (APEC O2): 200 µM (≈ 62 µg/mL); cytological profile (FM4-64 / SYTO-9 staining) (APEC O78 [8]): filamentous or short rods (spheroplasts) morphology (PG synthesis inhibitors); MBC (APEC O115): 200 µM (≈ 62 µg/mL); MIC (APEC O115): 200 µM (≈ 62 µg/mL); MBC (APEC O18): 200 µM (≈ 62 µg/mL); MIC (APEC O18): 200 µM (≈ 62 µg/mL)
